Assay results from patent US8124380B2 (priority 2003, dated 2012).
“And” between values parts separate entries of the source, which are not always exact repeats. Equal entries are not always repeated.

Legend:
mIgG F22-4 = format: binding, murine
mIgG D15-7 = format: binding, murine
mIgG A2-1 = format: binding, murine
mIgG E4-1 = format: binding, murine
mIgG C1-7 = format: binding, murine
LPS 2a = system: LPS 2a; parameters: species or system mice; details: in vivo
[1] = system: mIgG F22-4, D15-7, A2-1, E4-1, C1-7; format: binding, murine

| Compound | IC50 (mIgG F22-4) | IC50 (mIgG D15-7) | IC50 (mIgG A2-1) | IC50 (mIgG E4-1) | IC50 (mIgG C1-7) | Anti-LPS 2a antibody titer, individual mouse (1) (LPS 2a) | Anti-LPS 2a antibody titer, individual mouse (2) (LPS 2a) | improving Ab binding by a factor (mIgG D15-7) | gain in recognition / binding improvement by a factor (mIgG A2-1) | improving Ab binding by a factor (mIgG E4-1) | recognition (binding) by the mIgG [1] | fold increase in binding (mIgG A2-1) |
| --- | --- | --- | --- | --- | --- | --- | --- | --- | --- | --- | --- | --- |
| CO[C@@H]1O[C@@H](C)[C@H](O)[C@@H](O)[C@H]1O[C@@H]1O[C@@H](C)[C@H](O)[C@@H](O)[C@H]1O[C@@H]1O[C@H](CO)[C@@H](O)[C@H](O[C@@H]2O[C@@H](C)[C@H](O[C@H]3O[C@H](CO)[C@@H](O)[C@H](O)[C@H]3O)[C@@H](O)[C@H]2O)[C@H]1NC(C)=O [(E)CDAB, Methyl α-D-glucopyranosyl-(1→4)-α-L-rhamnopyranosyl-(1→3)-2-acetamido-2-deoxy-β-D-glucopyranosyl-(1→2)-α-L-rhamnopyranosyl-(1→2)-α-L-rhamnopyranoside] | 354 µM | > 1000 µM | > 1000 µM | > 1000 µM | > 1000 µM |  |  |  |  |  |  |  |
| COC1OC(C)C(O)C(O)C1OC1OC(CO)C(O)C(OC2OC(C)C(OC3OC(CO)C(O)C(O)C3O)C(O)C2O)C1NC(C)=O (stereo not shown) [(E)CDA] | 181 µM | > 1000 µM | > 1000 µM | > 1000 µM | > 1000 µM |  |  |  |  |  |  |  |
| CO[C@@H]1O[C@@H](C)[C@H](O)[C@@H](O)[C@H]1O[C@@H]1O[C@H](CO)[C@@H](O)[C@H](O[C@@H]2O[C@@H](C)[C@H](O[C@H]3O[C@H](CO)[C@@H](O)[C@H](O)[C@H]3O)[C@@H](O[C@@H]3O[C@@H](C)[C@H](O)[C@@H](O)[C@H]3O)[C@H]2O)[C@H]1NC(C)=O [B(E)CDA] | 2.5 µM | 240 µM | 350 µM | 75 µM | 400 µM |  |  |  |  |  |  |  |
| TT: tetanus toxoid alone (140 μg/mice/injection), control [reference compound] |  |  |  |  |  | 0 | 0 |  |  |  |  |  |
| CO[C@@H]1O[C@H](CO)[C@@H](O)[C@H](O[C@@H]2O[C@@H](C)[C@H](O[C@H]3O[C@H](CO)[C@@H](O)[C@H](O)[C@H]3O)[C@@H](O[C@@H]3O[C@@H](C)[C@H](O)[C@@H](O)[C@H]3O[C@@H]3O[C@@H](C)[C@H](O)[C@@H](O)[C@H]3O)[C@H]2O)[C@H]1NC(C)=O [AB(E)CD, Methyl α-L-rhamnopyranosyl-(1→2)-α-L-rhamnopyranosyl-(1→3)-[α-D-glucopyranosyl-(1→4)]-α-L-rhamnopyranosyl-(1→3)-2-acetamido-2-deoxy-β-D-glucopyranoside] | 21 µM and 21.6 µM | 490 µM | 378 µM | 287 µM and 288 µM | 734 µM |  |  |  |  |  |  |  |
| COC1OC(C)C(OC2OC(CO)C(O)C(O)C2O)C(OC2OC(C)C(O)C(O)C2OC2OC(C)C(O)C(O)C2OC2OC(CO)C(O)C(OC3OC(C)C(OC4OC(CO)C(O)C(O)C4O)C(OC4OC(C)C(O)C(O)C4O)C3O)C2NC(C)=O)C1O (stereo not shown) [B(E)CDA B(E)C] | 0.22 µM | 60.8 µM | 12.9 µM | 12 µM | 242 µM |  |  | ~4 | ~25 | ~4 |  |  |
| COC1OC(C)C(OC2OC(CO)C(O)C(O)C2O)C(OC2OC(C)C(O)C(O)C2OC2OC(C)C(O)C(O)C2OC2OC(CO)C(O)C(O)C2NC(C)=O)C1O (stereo not shown) [DAB(E)C] | > 1000 µM | > 1000 µM | > 1000 µM | > 1000 µM | > 1000 µM |  |  |  |  |  | absence of recognition |  |
| CO[C@@H]1O[C@H](CO)[C@@H](O)[C@H](O[C@@H]2O[C@@H](C)[C@H](O[C@H]3O[C@H](CO)[C@@H](O)[C@H](O)[C@H]3O)[C@@H](O[C@@H]3O[C@@H](C)[C@H](O)[C@@H](O)[C@H]3O)[C@H]2O)[C@H]1NC(C)=O [B(E)CD, Methyl α-L-rhamnopyranosyl-(1→3)-[α-D-glucopyranosyl-(1→4)]-α-L-rhamnopyranosyl-(1→3)-2-acetamido-2-deoxy-β-D-glucopyranoside] | 5 µM | 198 µM | > 1000 µM | 87 µM | > 1000 µM |  |  |  |  |  |  |  |
| COC1OC(C)C(OC2OC(CO)C(O)C(O)C2O)C(OC2OC(C)C(O)C(O)C2O)C1O (stereo not shown) [B(E)C] | > 1000 µM | > 1000 µM | > 1000 µM | > 1000 µM | > 1000 µM |  |  |  |  |  |  |  |
| COC1OC(C)C(OC2OC(CO)C(O)C(O)C2O)C(OC2OC(C)C(O)C(O)C2OC2OC(C)C(O)C(O)C2OC2OC(CO)C(O)C(OC3OC(C)C(OC4OC(CO)C(O)C(O)C4O)C(OC4OC(C)C(O)C(O)C4OC4OC(C)C(O)C(O)C4OC4OC(CO)C(O)C(O)C4NC(C)=O)C3O)C2NC(C)=O)C1O [DA B(E)CDA B(E)C, Methyl (2-acetamido-2-deoxy-β-D-glucopyranosyl)-(1→2)-(α-L-rhamnopyranosyl)-(1→2)-(α-L-rhamnopyranosyl)-(1→3)-[α-D-glucopyranosyl-(1→4)]-(α-L-rhamnopyranosyl)-(1→3)-(2-acetamido-2-deoxy-β-D-glucopyranosyl)-(1→2)-(α-L-rhamnopyranosyl)-(1→2)-(α-L-rhamnopyranosyl)-(1→3)-[α-D-glucopyranosyl-(1→4)]-α-L-rhamnopyranoside] | 5 µM | 11.9 µM | 3 µM | 4.4 µM | 19 µM |  |  |  |  |  |  | 100 fold |
